Here are results for 25 compounds from patent US10722514B2 (FLX Bio, Inc., priority 2017, dated 2020).

This assay has as its target T1, recombinant full-length USP7 (Homo sapiens, UniProt Q93009).
T1 construct: A 25 μl reaction volume containing recombinant full-length USP7 (62 pM)
Nature of the assay: USP7-mediated ubiquitin-rhodamine cleavage assay. Type of assay: biochemical. The settings on record: recombinant full-length USP7 62 pM, ubiquitin-rhodamine 100 nM, 1 hour reaction at room temperature. Put shortly:
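USP7 (62 pM) in 20 mM HEPES pH 7.3, 150 mM NaCl, 1 mM TCEP, 125 μg/ml BSA was preincubated with compound (1% DMSO) for 30 min at room temperature. Ubiquitin-rhodamine (100 nM final) was then added for 1 hour, the reaction stopped with acetic acid, and fluorescence read; IC50 from 4-parameter fit.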

The mark [1] stands for this setting: 30-minute incubation with compound, read-out: Potency: USP7 IC50.
Where [2] appears, read: 30-minute pre-incubation, read-out: Potency (USP7 IC50).

The structures appear in SMILES notation. Where a name gives a salt, the structure may show the parent alone. Read-outs that look alike come from different tables or passages of the source.

T1 sequence (Q93009 whole entry): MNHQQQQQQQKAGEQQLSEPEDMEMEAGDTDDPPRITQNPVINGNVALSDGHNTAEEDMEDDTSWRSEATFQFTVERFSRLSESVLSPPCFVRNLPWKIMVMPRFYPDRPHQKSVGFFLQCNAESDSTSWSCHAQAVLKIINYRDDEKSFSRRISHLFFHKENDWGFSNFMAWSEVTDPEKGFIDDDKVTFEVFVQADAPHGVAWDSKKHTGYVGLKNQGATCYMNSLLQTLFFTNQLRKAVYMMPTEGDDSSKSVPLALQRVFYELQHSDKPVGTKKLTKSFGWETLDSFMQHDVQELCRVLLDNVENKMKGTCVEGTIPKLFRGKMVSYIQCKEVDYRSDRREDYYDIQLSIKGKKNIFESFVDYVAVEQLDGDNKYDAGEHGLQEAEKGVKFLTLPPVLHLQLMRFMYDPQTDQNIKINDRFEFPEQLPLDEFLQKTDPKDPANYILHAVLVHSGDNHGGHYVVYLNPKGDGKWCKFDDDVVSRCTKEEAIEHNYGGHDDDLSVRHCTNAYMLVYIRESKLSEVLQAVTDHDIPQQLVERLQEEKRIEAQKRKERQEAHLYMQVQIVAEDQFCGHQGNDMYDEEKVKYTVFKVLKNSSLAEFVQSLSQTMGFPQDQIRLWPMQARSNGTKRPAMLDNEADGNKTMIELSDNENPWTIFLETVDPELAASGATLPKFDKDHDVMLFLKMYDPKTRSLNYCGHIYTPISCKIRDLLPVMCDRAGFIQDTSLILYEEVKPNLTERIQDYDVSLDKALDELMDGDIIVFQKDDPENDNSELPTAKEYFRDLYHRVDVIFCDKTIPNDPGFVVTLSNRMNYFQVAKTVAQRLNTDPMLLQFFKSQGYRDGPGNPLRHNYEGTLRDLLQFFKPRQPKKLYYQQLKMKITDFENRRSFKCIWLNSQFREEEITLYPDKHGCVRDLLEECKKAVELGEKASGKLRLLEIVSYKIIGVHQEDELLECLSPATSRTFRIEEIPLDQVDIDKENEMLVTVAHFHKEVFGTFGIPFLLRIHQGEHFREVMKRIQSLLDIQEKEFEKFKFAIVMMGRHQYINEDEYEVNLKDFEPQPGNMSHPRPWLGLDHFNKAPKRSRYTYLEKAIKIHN

For the compound `Cc1cc(Cl)cc(-c2ccnc3cc(Cn4c(=O)ccn(CC(F)(F)F)c4=O)sc23)c1O[C@@H]1C[C@@H]2NCCO[C@H]2C1` [Example 695, 3-[[7-[2-[[(4aS,6R,7aS)-2,3,4,4a,5,6,7,7a-octahydrocyclopenta[b][1,4]oxazin-6-yl]oxy]-5-chloro-3-methyl-phenyl]thieno[3,2-b]pyridin-2-yl]methyl]-1-(2,2,2-trifluoroethyl)pyrimidine-2,4-dione], the IC50 (30-minute incubation, read-out: Potency (USP7 IC50)) was less than 1000 nM.
For `Cc1cc(Cl)cc(-c2ccnc3cc(CN4C(=O)CCC4=O)sc23)c1O[C@@H]1CN(CCO)C[C@@H]1F` [Example 302, 1-[[7-[5-chloro-2-[(3R,4S)-4-fluoro-1-(2-hydroxyethyl)pyrrolidin-3-yl]oxy-3-methyl-phenyl]thieno[3,2-b]pyridin-2-yl]methyl]pyrrolidine-2,5-dione], the IC50 under setting [1] was less than 1000 nM.
As to `Cc1cc(Cl)cc(-c2ccnc3cc(Cn4c(=O)ccn(C)c4=O)sc23)c1O[C@H]1CCCNC1` [Example 161, (S)-3-((7-(5-Chloro-3-methyl-2-(piperidin-3-yloxy)phenyl)thieno[3,2-b]pyridin-2-yl)methyl)-1-methylpyrimidine-2,4(1H,3H)-dione], the IC50 under setting [1] is less than 1000 nM.
For `Cc1cc(Cl)cc(-c2ccnc3cc(Cn4c(=O)[nH]cc(C)c4=O)sc23)c1O[C@H]1CCCNC1` [Example 479, 3-[[7-[5-chloro-3-methyl-2-[[(3S)-3-piperidyl]oxy]phenyl]thieno[3,2-b]pyridin-2-yl]methyl]-5-methyl-1H-pyrimidine-2,4-dione], under setting [2], the IC50 is less than 1000 nM.
For `Cc1cc(Cl)cc(-c2ccnc3cc(CN4C(=O)CCC4=O)sc23)c1O[C@@H]1CN(C(C)C)C[C@@H]1F` [Example 323, 1-[[7-[5-chloro-2-[(3R,4S)-4-fluoro-1-isopropyl-pyrrolidin-3-yl]oxy-3-methyl-phenyl]thieno[3,2-b]pyridin-2-yl]methyl]pyrrolidine-2,5-dione], the IC50 under setting [1] is less than 1000 nM.
For the compound `Cc1cc(Cl)cc(-c2ccnc3cc(CN4C(=O)C[C@H](O)C4=O)sc23)c1OC1CCNCC1` [Example 417, (3S)-1-[[7-[5-chloro-3-methyl-2-(4-piperidyloxy)phenyl]thieno[3,2-b]pyridin-2-yl]methyl]-3-hydroxy-pyrrolidine-2,5-dione dihydrochloride], under setting [2], the IC50 was less than 1000 nM.
For the compound `CCC(O)c1cc2nccc(-c3cc(Cl)cc(C)c3O[C@H]3C[C@H]4CC[C@@H](C3)N4)c2s1` (stereo partly drawn) [Example 199, 1-(7-(2-(((1R,3r,5S)-8-Azabicyclo[3.2.1]octan-3-yl)oxy)-5-chloro-3-methylphenyl)thieno[3,2-b]pyridin-2-yl)propan-1-ol], the IC50 under setting [1] lay in the range of 1000 to 10000 nM.
Same read-out and setting: with `Cc1cc(Cl)cc(-c2ccnc3cc(CN4C(=O)CCC4=O)sc23)c1O[C@H]1CCCCNC1` [Example 268, (S)-1-((7-(2-(azepan-3-yloxy)-5-chloro-3-methylphenyl)thieno[3,2-b]pyridin-2-yl)methyl)pyrrolidine-2,5-dione] the figure was less than 1000 nM.
The same measure, in the same setting: for `Cc1cc(Cl)cc(-c2ccnc3cc(CN4C(=O)C5C(C4=O)C5(C)C)sc23)c1OC1(C)CNC1` (stereo not shown) [Example 393, 3-[[7-[5-chloro-3-methyl-2-(3-methylazetidin-3-yl)oxy-phenyl]thieno[3,2-b]pyridin-2-yl]methyl]-6,6-dimethyl-3-azabicyclo[3.1.0]hexane-2,4-dione dihydrochloride] the value was less than 1000 nM.
With `Cc1cc(Cl)cc(-c2ccnc3cc(Cn4c(=O)ccn(CC(F)(F)F)c4=O)sc23)c1O[C@H]1CC[C@H](N)C1` [Example 596, 3-[[7-[2-[(1S,3S)-3-aminocyclopentoxy]-5-chloro-3-methyl-phenyl]thieno[3,2-b]pyridin-2-yl]methyl]-1-(2,2,2-trifluoroethyl)pyrimidine-2,4-dione; 2,2,2-trifluoroacetic acid], the concentration for half-maximal inhibition (IC50) under setting [2] is less than 1000 nM.
Same read-out and setting: with `Cc1cc(Cl)cc(-c2ncnc3cc(Cn4c(=O)ccn(C(C)C)c4=O)sc23)c1O[C@H]1CCCN(C(C)C)C1` [Example 513, 3-[[4-[5-chloro-2-[[(3S)-1-isopropyl-3-piperidyl]oxy]-3-methyl-phenyl]thieno[3,2-d]pyrimidin-6-yl]methyl]-1-isopropyl-pyrimidine-2,4-dione] the figure was less than 1000 nM.
Turning to `Cc1cc(C(F)(F)F)cc(-c2ccnc3cc(Cn4c(=O)[nH]cc(F)c4=O)sc23)c1O[C@@H]1CNC[C@@H]1F` [Example 136, 5-Fluoro-3-((7-(2-(((3R,4S)-4-fluoropyrrolidin-3-yl)oxy)-3-methyl-5-(trifluoromethyl)phenyl)thieno[3,2-b]pyridin-2-yl)methyl)pyrimidine-2,4(1H,3H)-dione], the IC50 under setting [1] is less than 1000 nM.
Same read-out and setting: for `Cc1cc(Cl)cc(-c2ccnc3cc(CN4C(=O)CCC4=O)sc23)c1OC1CCN(C)CC1` [Example 216, 1-((7-(5-Chloro-3-methyl-2-((I-methylpiperidin-4-yl)oxy)phenyl)thieno[3,2-b]pyridin-2-yl)methyl)pyrrolidine-2,5-dione] the value was less than 1000 nM.
Still for that read-out and setting: for `Cc1cc(Cl)cc(-c2ccnc3cc(CN4C(=O)c5ccncc5C4=O)sc23)c1O[C@H]1CCCNC1` [Example 335, 2-[[7-[5-chloro-3-methyl-2-[[(3S)-3-piperidyl]oxy]phenyl]thieno[3,2-b]pyridin-2-yl]methyl]pyrrolo[3,4-c]pyridine-1,3-dione; 2,2,2-trifluoroacetic acid] the value was less than 1000 nM.
For `CC(=O)N1CC[C@@H](Oc2c(C)cc(Cl)cc2-c2ccnc3cc(Cn4c(=O)ccn(CC(F)(F)F)c4=O)sc23)[C@@H](C)C1` [Example 607, 3-[[7-[2-[[(3S,4R)-1-acetyl-3-methyl-4-piperidyl]oxy]-5-chloro-3-methyl-phenyl]thineo[3,2-b]pyridin-2-yl]methyl]-1-(2,2,2-trifluoroethyl)pyrimidine-2,4-dione], the IC50 under setting [2] is less than 1000 nM.
As to `Cc1cc(Cl)cc(-c2ccnc3cc(CN4C(=O)CCC4=O)sc23)c1OC1CCNCC1` [Example 210, 1-((7-(5-Chloro-3-methyl-2-(piperidin-4-yloxy)phenyl)thieno[3,2-b]pyridin-2-yl)methyl)pyrrolidine-2,5-dione], the 50% inhibitory concentration (IC50) under setting [1] is less than 1000 nM.
Same read-out and setting: with `Cc1cc(Cl)cc(-c2ccnc3cc(Cn4c(=O)ccn(CC(F)(F)F)c4=O)sc23)c1OC1CNCC1(C)C` (stereo not shown) [Example 346, 3-[[7-[5-chloro-2-(4,4-dimethylpyrrolidin-3-yl)oxy-3-methyl-phenyl]thieno[3,2-b]pyridin-2-yl]methyl]-1-(2,2,2-trifluoroethyl)pyrimidine-2,4-dione] the figure was less than 1000 nM.
With `Cc1cc(Cl)cc(-c2ncnc3cc(Cn4c(=O)ccn(CC(F)(F)F)c4=O)sc23)c1O[C@H]1CCNC[C@H]1C` [Example 585, 3-[[4-[5-chloro-3-methyl-2-[[(3R,4S)-3-methyl-4-piperidyl]oxy]phenyl]thieno[3,2-d]pyrimidin-6-yl]methyl]-1-(2,2,2-trifluoroethyl)pyrimidine-2,4-dione], under setting [2], the IC50 was less than 1000 nM.
In the case of `Cc1cc(C(F)(F)F)cc(-c2ccnc3cc(CN4C(=O)C5CC5C4=O)sc23)c1O[C@@H]1CNC[C@@H]1F` (stereo partly drawn) [Example 131, 3-((7-(2-(((3R,4S)-4-Fluoropyrrolidin-3-yl)oxy)-3-methyl-5-(trifluoromethyl)phenyl)thieno[3,2-b]pyridin-2-yl)methyl)-3-azabicyclo[3.1.0]hexane-2,4-dione], the IC50 under setting [1] was less than 1000 nM.
With `COCCN1C[C@H](C)[C@H](Oc2c(C)cc(Cl)cc2-c2ccnc3cc(Cn4c(=O)ccn(CC(F)(F)F)c4=O)sc23)C1` [Example 645, 3-[[7-[5-chloro-2-[(3S,4S)-1-(2-methoxyethyl)-4-methyl-pyrrolidin-3-yl]oxy-3-methyl-phenyl]thieno[3,2-b]pyridin-2-yl]methyl]-1-(2,2,2-trifluoroethyl)pyrimidine-2,4-dione], under setting [2], the IC50 was less than 1000 nM.
`Cc1cc(Cl)cc(-c2ccnc3cc(Cn4c(=O)ccn(C)c4=O)sc23)c1OC1CCNCC1` [Example 195, 3-((7-(5-Chloro-3-methyl-2-(piperidin-4-yloxy)phenyl)thieno[3,2-b]pyridin-2-yl)methyl)-1-methylpyrimidine-2,4(1H,3H)-dione]: the IC50 under setting [1] was less than 1000 nM.
Same read-out and setting: for `Cc1cc(Cl)cc(-c2ccnc3cc(CN4C(=O)C5C(C4=O)C5(C)C)sc23)c1OC1CNCC(C)(C)C1` [Example 362, 3-[[7-[5-chloro-2-[[(3S)-5,5-dimethyl-3-piperidyl]oxy]-3-methyl-phenyl]thieno[3,2-b]pyridin-2-yl]methyl-6,6-dimethyl-3-azabicyclo[3.1.0]hexane-2,4-dione] the value was less than 1000 nM.
As to `Cc1cc(Cl)cc(-c2ncnc3cc(CN4C(=O)CCC4=O)sc23)c1O[C@H]1CCCNC1` [Example 230, (S)-1-((4-(5-Chloro-3-methyl-2-(piperidin-3-yloxy)phenyl)thieno[3,2-d]pyrimidin-6-yl)methyl)pyrrolidine-2,5-dione], under setting [1], the IC50 was less than 1000 nM.
As for `Cc1cc(Cl)cc(-c2ccnc3cc(Cn4c(=O)ccn(CC(F)(F)F)c4=O)sc23)c1O[C@@H]1CN(C2CCOC2)C[C@@H]1C` (stereo partly drawn) [Example 605, 3-[[7-[5-chloro-3-methyl-2-[(3S,4S)-4-methyl-1-tetrahydrofuran-3-yl-pyrrolidin-3-yl]oxy-phenyl]thieno[3,2-b]pyridin-2-yl]methyl]-1-(2,2,2-trifluoroethyl)pyrimidine-2,4-dione], under setting [2], the IC50 was less than 1000 nM.
In the case of `Cc1cc(Cl)cc(-c2ccnc3cc(CN4C(=O)CN(C)C4=O)sc23)c1O[C@@H]1CNC[C@@H]1F` [Example 144, 3-((7-(5-Chloro-2-(((3R,4S)-4-fluoropyrrolidin-3-yl)oxy)-3-methylphenyl)thieno[3,2-b]pyridin-2-yl)methyl)-1-methylimidazolidine-2,4-dione], the IC50 under setting [1] lay within 1000 to 10000 nM.

Broadly, the IC50 is the point on the concentration scale where inhibition reaches its midpoint.
